# Assay results reported in patent publication US12679807B2 (MERCK SHARP & DOHME LLC, priority 2020, dated 2026).
# pEC50: −log10 of the molar value.
# Biological target: T1, GCS enzyme contained within Golgi preparations isolated from human A375 malignant melanoma skin cells (Homo sapiens, UniProt Q16739)
# T1 construct: endogenous levels of GCS enzyme contained within Golgi preparations isolated from human A375 malignant melanoma skin cells; endogenous in cells; host or cells: A375 human malignant melanoma cells (crude Golgi preparation)
# T1 sequence (Q16739 1-394): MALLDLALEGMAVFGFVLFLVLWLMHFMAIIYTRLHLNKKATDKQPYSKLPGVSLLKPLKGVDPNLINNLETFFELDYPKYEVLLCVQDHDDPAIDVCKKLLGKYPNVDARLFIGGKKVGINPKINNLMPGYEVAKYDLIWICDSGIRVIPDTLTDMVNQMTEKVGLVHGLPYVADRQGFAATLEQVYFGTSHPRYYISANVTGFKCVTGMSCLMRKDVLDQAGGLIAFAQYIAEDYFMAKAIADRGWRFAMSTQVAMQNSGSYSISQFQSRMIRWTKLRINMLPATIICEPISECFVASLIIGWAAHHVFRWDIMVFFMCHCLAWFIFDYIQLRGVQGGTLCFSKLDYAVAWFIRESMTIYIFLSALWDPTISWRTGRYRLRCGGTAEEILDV
# Test: UDP-Glo glucosylceramide synthase biochemical assay
# Settings: crude Golgi preparation from A375 cells; C6 ceramide and UDP-glucose substrates; 20 h incubation at room temperature; UDP detected by luminescence
# Summary of the method: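 Endogenous enzyme in A375 Golgi preparations (1.5 μg total protein) was preincubated 30 min with compound, then reacted 20 h at room temperature with UDP-glucose and ceramide.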
row,pEC50,SMILES
1,9.31,"CC(C)(O)C(C1CC1)N1Cc2cccc(NC(=O)c3c(Cl)cnc4c3OCO4)c2C1=O (single isomer, unassigned) [Compound 157, (R or S)-6-chloro-N-(2-(1-cyclopropyl-2-hydroxy-2-methylpropyl)-3-oxoisoindolin-4-yl)-[1,3]dioxolo[4,5-b]pyridine-7-carboxamide]"
2,6.30,"Cc1nnc(-c2ncc(-c3cccc4c3C(=O)N([C@H](C3CC3)C(C)(C)O)C4)cc2F)o1 [Compound 66, (R)-2-(1-cyclopropyl-2-hydroxy-2-methylpropyl)-7-(5-fluoro-6-(5-methyl-1,3,4-oxadiazol-2-yl)pyridin-3-yl)isoindolin-1-one]"
3,7.82,"O=C(Nc1cccc2c1C(=O)N(C(C1CC1)C1CC1)C2)c1ccnc2c1CCC2 [Compound 121, N-(2-(dicyclopropylmethyl)-3-oxoisoindolin-4-yl)-6,7-dihydro-5H-cyclopenta[b]pyridine-4-carboxamide]"
4,7.23,"Cc1noc(-c2ccc(-c3cccc4c3C(=O)N([C@H](C3CC3)C(C)(C)O)C4)cc2)n1 [Compound 78, (R)-2-(1-cyclopropyl-2-hydroxy-2-methylpropyl)-7-(4-(3-methyl-1,2,4-oxadiazol-5-yl)phenyl)isoindolin-1-one]"
5,9.23,"Cc1nnc(-c2ccc(-c3cccc4c3C(=O)N([C@H](C3CC3)C(C)(C)O)C4)c(F)c2C)o1 [Compound 72, (R)-2-(1-cyclopropyl-2-hydroxy-2-methylpropyl)-7-(2-fluoro-3-methyl-4-(5-methyl-1,3,4-oxadiazol-2-yl)phenyl)isoindolin-1-one]"
6,8.89,"CC(C)(O)C(C1CC1)N1Cc2cccc(NC(=O)c3cccc4c3CCC4)c2C1=O (single isomer, unassigned) [Compound 114, (R or S)-N-(2-(1-cyclopropyl-2-hydroxy-2-methylpropyl)-3-oxoisoindolin-4-yl)-2,3-dihydro-1H-indene-4-carboxamide]"
7,7.17,"Cc1cc(-c2cccc3c2C(=O)N(C(C2CC2)C(C)(C)O)C3)cc(C)n1 (racemic) [Compound 20, (R and S)-2-(1-cyclopropyl-2-hydroxy-2-methylpropyl)-7-(2,6-dimethylpyridin-4-yl)isoindolin-1-one]"
8,6.74,"O=C(Nc1cc(Cl)cc2c1C(=O)N(CC1CC1)C2)c1ccnc2c1CCC2 [Compound 143, N-(6-chloro-2-(cyclopropylmethyl)-3-oxoisoindolin-4-yl)-6,7-dihydro-5H-cyclopenta[b]pyridine-4-carboxamide]"
9,8.70,"Cc1cc(-c2ccc(-c3cccc4c3C(=O)N([C@H](C3CC3)C(C)(C)O)C4)cc2)on1 [Compound 90, (R)-2-(1-cyclopropyl-2-hydroxy-2-methylpropyl)-7-(4-(3-methylisoxazol-5-yl)phenyl)isoindolin-1-one]"
10,6.82,"CCOc1ccccc1C(=O)Nc1cccc2c1C(=O)N([C@@H](CO)C(C)C)C2 [Compound 100, (R)-2-ethoxy-N-(2-(1-hydroxy-3-methylbutan-2-yl)-3-oxoisoindolin-4-yl)benzamide]"
11,7.54,"COc1ncc(C)c(C(=O)Nc2cccc3c2C(=O)N(C(C2CC2)C(C)(C)O)C3)c1C (single isomer, unassigned) [Compound 153, (R or S)-N-(2-(1-cyclopropyl-2-hydroxy-2-methylpropyl)-3-oxoisoindolin-4-yl)-2-methoxy-3,5-dimethylisonicotinamide]"
12,7.02,"CC(C)(O)C(C1CC1)N1Cc2nccc(NC(=O)c3ccnc4c3CCC4)c2C1=O (single isomer, unassigned) [Compound 152, (R or S)-N-(6-(1-cyclopropyl-2-hydroxy-2-methylpropyl)-5-oxo-6,7-dihydro-5H-pyrrolo [3,4-b]pyridin-4-yl)-6,7-dihydro-5H-cyclopenta[b]pyridine-4-carboxamide]"
13,7.42,"C[C@@H](N1Cc2cccc(NC(=O)c3nc(C(F)(F)F)ccc3Cl)c2C1=O)C(C)(C)O [Compound 129, (R)-3-chloro-N-(2-(3-hydroxy-3-methylbutan-2-yl)-3-oxoisoindolin-4-yl)-6-(trifluoromethyl)picolinamide]"
14,9.52,"Cc1cnc2c(c1C(=O)Nc1cccc3c1C(=O)N(C(C1CC1)C(C)(C)O)C3)CCO2 (single isomer, unassigned) [Compound 168, (R or S)—N-(2-(1-Cyclopropyl-2-hydroxy-2-methylpropyl)-3-oxoisoindolin-4-yl)-5-methyl-2,3-dihydrofuro[2,3-b]pyridine-4-carboxamide]"
15,9.68,"Cc1ccc(F)c(C(=O)Nc2cccc3c2C(=O)N(C(C2CC2)C(C)(C)O)C3)c1Cl (single isomer, unassigned) [Compound 110, (R or S)-2-chloro-N-(2-(1-cyclopropyl-2-hydroxy-2-methylpropyl)-3-oxoisoindolin-4-yl)-6-fluoro-3-methylbenzamide]"
16,7.62,"Cn1cc(-c2ccc(-c3cccc4c3C(=O)N(C(C(C)(C)O)C(F)(F)F)C4)cc2)cn1 (single isomer, unassigned) [Compound 43, (R or S)-7-(4-(1-methyl-1H-pyrazol-4-yl)phenyl)-2-(1,1,1-trifluoro-3-hydroxy-3-methylbutan-2-yl)isoindolin-1-one]"
17,7.80,"CC(C)(O)C(C1CC1)N1Cc2cccc(OCc3c(Cl)cnc4c3OCO4)c2C1=O (single isomer, unassigned) [Compound 179, (R or S)-7-((6-chloro-[1,3]dioxolo[4,5-b]pyridin-7-yl)methoxy)-2-(1-cyclopropyl-2-hydroxy-2-methylpropyl)isoindolin-1-one]"
18,6.42,"O=C1c2c(cccc2-c2ccccc2OCC(F)(F)F)CN1CCC1CCC(O)C1 (racemic) [Compound 47, (cis and trans racemic)-2-(2-(3-hydroxycyclopentyl)ethyl)-7-(2-(2,2,2-trifluoroethoxy)phenyl) isoindolin-1-one]"
19,7.05,"Cc1nc(-c2ccc(-c3cccc4c3C(=O)N([C@H](C3CC3)C(C)(C)O)C4)cc2)no1 [Compound 88, (R)-2-(1-cyclopropyl-2-hydroxy-2-methylpropyl)-7-(4-(5-methyl-1,2,4-oxadiazol-3-yl)phenyl)isoindolin-1-one]"
20,7.11,"COc1nccc(C(=O)Nc2cccc3c2C(=O)N(C(C2CC2)C(C)(C)O)C3)c1OC (single isomer, unassigned) [Compound 164, (R or S)-N-(2-(1-cyclopropyl-2-hydroxy-2-methylpropyl)-3-oxoisoindolin-4-yl)-2,3-dimethoxyisonicotinamide]"
21,7.46,"Cn1ccc2c(C(=O)Nc3cccc4c3C(=O)N(C(C3CC3)C3CC3)C4)cccc21 [Compound 126, N-(2-(dicyclopropylmethyl)-3-oxoisoindolin-4-yl)-1-methyl-1H-indole-4-carboxamide]"
22,9.72,"CC(C)(O)C(C1CC1)N1Cc2cccc(NC(=O)c3c(Cl)cnc4c3CCO4)c2C1=O (single isomer, unassigned) [Compound 155, (R or S)-5-Chloro-N-(2-(1-cyclopropyl-2-hydroxy-2-methylpropyl)-3-oxoisoindolin-4-yl)-2,3-dihydrofuro[2,3-b]pyridine-4-carboxamide]"
23,9.01,"CC(C)(O)[C@@H](C1CC1)N1Cc2cccc(NC(=O)c3cccn4nccc34)c2C1=O [Compound 156, (R)-N-(2-(1-cyclopropyl-2-hydroxy-2-methylpropyl)-3-oxoisoindolin-4-yl)pyrazolo[1,5-a]pyridine-4-carboxamide]"
24,6.92,"CC(C)(O)C(C1CC1)N1Cc2cccc(CCc3ccnc4c3CCC4)c2C1=O (single isomer, unassigned) [Compound 173, (R or S)-2-(1-Cyclopropyl-2-hydroxy-2-methylpropyl)-7-(2-(6,7-dihydro-5H-cyclopenta[b]pyridin-4-yl)ethyl)isoindolin-1-one]"
25,8.85,"Cc1c(CO)noc1-c1ccc(-c2cccc3c2C(=O)N([C@H](C2CC2)C(C)(C)O)C3)cc1 [Compound 96, 2-[(1R)-1-cyclopropyl-2-hydroxy-2-methyl-propyl]-7-[4-[3-(hydroxymethyl)-4-methyl-isoxazol-5-yl]phenyl]isoindolin-1-one]"
26,8.09,"CN1C(=O)Cc2cc(-c3cccc4c3C(=O)N([C@H](C3CC3)C(C)(C)O)C4)ccc21 [Compound 85, (R)-5-(2-(1-cyclopropyl-2-hydroxy-2-methylpropyl)-3-oxoisoindolin-4-yl)-1-methylindolin-2-one]"
27,7.55,"Cc1nnc(-c2ccc(-c3ccc(O)c4c3C(=O)N([C@H](C3CC3)C(C)(C)O)C4)cc2)o1 [Compound 58, (R)-2-(1-Cyclopropyl-2-hydroxy-2-methylpropyl)-4-hydroxy-7-(4-(5-methyl-1,3,4-oxadiazol-2-yl)phenyl)isoindolin-1-one]"
28,6.85,"O=C(Nc1cccc2c1C(=O)N(C(C1CC1)C1CC1)C2)c1ccnc2[nH]ccc12 [Compound 141, N-(2-(dicyclopropylmethyl)-3-oxoisoindolin-4-yl)-1H-pyrrolo[2,3-b]pyridine-4-carboxamide]"
29,7.55,"CC(C)(O)C(C1CC1)N1Cc2cccc(COc3c(Cl)cnc4c3OCO4)c2C1=O (single isomer, unassigned) [Compound 177, (R or S)-7-(((6-chloro-[1,3]dioxolo[4,5-b]pyridin-7-yl)oxy)methyl)-2-(1-cyclopropyl-2-hydroxy-2-methylpropyl)isoindolin-1-one]"
